Drawing on US20230391779A1, “BICYCLIC COMPOUNDS, COMPOSITIONS AND USE THEREOF” (Betta Pharmaceuticals Co., Ltd., priority 2020, published 2023), this text covers EC50, Cmax and AUC for 28 molecules.

One data set has as its system TEAD-YAP/TAZ interaction. Nature of the data set: CTGF ELISA assay. The data set is classed as cell-based, human. The note with it: CTGF in culture supernatant of NCI-H2052 cells, 24 hours with compound. An outline of the steps:
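NCI-H2052 cells treated 24 h at 37 °C with compound (10000–0.61 nM, 0.5% DMSO); secreted CTGF in supernatant measured by sandwich ELISA (OD 450 nm) against a standard curve. EC50 fitted from CTGF concentration-response curves.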
(In general: In an ELISA, binding on a coated surface is turned into a signal by an enzyme label.)

Data set [1] in a line: Pharmacokinetics in plasma following PO cassette dosing in mice. It counts as in vivo. The note with it: mouse, Balb/C female mice, 5 mg/kg; for AUC: blood collection 30 min, 2 h, 4 h. As to the method: Adult Balb/C female mice (6-7 weeks, Vitalriver) were received to cassette dosing of the test compounds with 10-20% DMSO, 10% Solutol (Kolliphor HS 15, Beijing Fengli Jingqiu Pharmaceutical Co., Ltd.) and 80-70% H2O as excipients. The mice (n=3) were giving oral administration (intragastric administration) at a dose of 5 mg/kg. Time of blood collection: 30 min, 2 h, 4 h. About 0.1 mL of whole blood was collected from retro-orbital venous plexus, and placed into tubes that contained EDTA as an anticoagulant. The samples were centrifuged at 4° C. and 4000 rpm for 10 min. The plasma was transferred into centrifuge tubes, and stored at −20° C. before being analyzed. Concentrations of test compounds in the plasma samples were analyzed with liquid chromatography-tandem mass spectrometry (LC-MS/MS). Plasma concentration-time data of individual animals was analyzed using Microsoft Excel 2010. Non-compartmental model was introduced in concentration analysis. The pharmacokinetic parameters of the test compounds were calculated using WinNonlin (version 4.1; Pharsight) software.

Regarding `C=CC(=O)N1CCC(n2nc(-c3ccc(C(F)(F)F)cc3)c3cccnc32)C1` (stereo not shown) [Compound 21, 1-(3-(3-(4-(trifluoromethyl)phen-yl)-1H-pyrazolo[3,4-b]pyridin-1-yl)pyrrolidin-1-yl)prop-2-en-1-one], the EC50 (in general, the concentration at which the effect is half-maximal) in the data set with TEAD-YAP/TAZ interaction was 11 nM. In data set [1], the Cmax (commonly the maximum level reached in the sampled fluid or tissue) came out at 1060 ng/mL and the AUC (in general, the area under the concentration-time curve, a measure of exposure) was determined as 3150 ng·h/mL.

`C=CC(=O)N1CCC(n2nc(-c3ccc(C(F)(F)F)cc3)c3ncccc32)C1` (stereo not shown) [Compound 26, 1-(3-(3-(4-(trifluoromethyl)phen-yl)-1H-pyrazolo[4,3-b]pyridin-1-yl)pyrrolidin-1-yl)prop-2-en-1-one]: in the data set on TEAD-YAP/TAZ interaction, the EC50 is 3.6 nM. Further, in data set [1], the Cmax worked out at 1420 ng/mL and the AUC was 4640 ng·h/mL.

On to `C=CC(=O)N1CCC(n2nc(-c3ccc(C(F)(F)F)cc3)c3ccc(C)cc32)C1` (stereo not shown) [Compound 47, 1-(3-(6-methyl-3-(4-(trifluoro-methyl)phenyl)-1H-indazol-1-yl)-pyrrolidin-1-yl)prop-2-en-1-one], for which, in the data set with TEAD-YAP/TAZ interaction, the EC50 was 15 nM. For the same molecule, in data set [1], the Cmax was determined as 721 ng/mL and the AUC amounted to 2510 ng·h/mL.

As for `C=CC(=O)N1CCC(n2nc(-c3ccc(C(F)(F)F)cn3)c3ccccc32)C1` (stereo not shown) [Compound 58, 1-(3-(3-(5-(trifluoromethyl)pyr-idin-2-yl)-1H-indazol-1-yl)pyrrol-idin-1-yl)prop-2-en-1-one], the EC50 in the data set on TEAD-YAP/TAZ interaction was determined as 17 nM. For the same molecule, in data set [1], the highest level (Cmax) was 1580 ng/mL and the AUC was 4470 ng·h/mL.

Take `C=CC(=O)N1CCC(n2nc(-c3ccc(C(F)(F)F)cc3)c3nc(OC)ccc32)C1` (stereo not shown) [Compound 89, 1-(3-(5-methoxy-3-(4-(trifluoro-methyl)phenyl)-1H-pyrazolo[4,3-b]pyridin-1-yl)pyrrolidin-1-yl)-prop-2-en-1-one]: the EC50 in the data set with TEAD-YAP/TAZ interaction was found to be 12 nM. In data set [1], this molecule gave a Cmax of 1970 ng/mL and an AUC of 6480 ng·h/mL.

`C=CC(=O)N1CCC(n2nc(-c3ccc(C(F)(F)F)nc3)c3cccc(C(=O)NC4CC(F)(F)C4)c32)C1` (stereo not shown) [Compound 104, 1-(1-acryloylpyrrolidin-3-yl)-N-(3,3-difluorocyclobutyl)-3-(6-(trifluoromethyl)pyridin-3-yl)-1H-indazole-7-carboxamide]: the EC50 in the data set with TEAD-YAP/TAZ interaction stood at 14 nM. In data set [1], the concentration peaked (Cmax) at 1520 ng/mL and the AUC is 5060 ng·h/mL.

On to `C=C(F)C(=O)N1CC(n2nc(-c3cnc(C(F)(F)F)nc3)c3cccnc32)C1` [Compound 183, 2-fluoro-1-(3-(3-(2-(trifluorometh-yl)pyrimidin-5-yl)-1H-pyrazolo-[3,4-b]pyridin-1-yl)azetidin-1-yl)-prop-2-en-1-one], for which, in data set [1], the Cmax was determined as 3680 ng/mL and the AUC was 12800 ng·h/mL.

As for `C=C(F)C(=O)N1CC(n2nc(-c3ccc(C(F)(F)F)cc3)c3ccc(OC)nc32)C1` [Compound 221, 2-fluoro-1-(3-(6-methoxy-3-(4-(trifluoromethyl)phenyl)-1H-pyrazolo[3,4-b]pyridin-1-yl)-azetidin-1-yl)prop-2-en-1-one], the EC50 in the data set on TEAD-YAP/TAZ interaction was determined as 0.9 nM.

Take `C=C(F)C(=O)N1CC(n2nc(-c3ccc(C(F)(F)F)cc3)c3ccnc(OC)c32)C1` [Compound 222, 2-fluoro-1-(3-(7-methoxy-3-(4-(trifluoromethyl)phenyl)-1H-pyrazolo[3,4-c]pyridin-1-yl)-azetidin-1-yl)prop-2-en-1-one]: the EC50 with TEAD-YAP/TAZ interaction turned out to be 0.9 nM.

With `C=C(F)C(=O)N1CC(n2nc(-c3ccc(C(F)(F)F)cc3)c3ncc(OC)nc32)C1` [Compound 223, 2-fluoro-1-(3-(6-methoxy-3-(4-(trifluoromethyl)phenyl)-1H-pyrazolo[3,4-b]pyrazin-1-yl)-azetidin-1-yl)prop-2-en-1-one], the EC50 in the data set on TEAD-YAP/TAZ interaction was found to be 0.6 nM.

Turning to `C=C(F)C(=O)N1CC(n2nc(-c3ccc(C(F)(F)F)cc3)c3nc(C)n(C)c(=O)c32)C1` [Compound 225, 1-(1-(2-fluoroacryloyl)azetidin-3-yl)-5,6-dimethyl-3-(4-(trifluoro-methyl)phenyl)-1,6-dihydro-7H-pyrazolo[4,3-d]pyrimidin-7-one], the EC50 in the data set on TEAD-YAP/TAZ interaction amounted to 3.6 nM.

Consider `C=C(F)C(=O)N1CC(n2c(=O)n(-c3ccc(C(F)(F)F)cc3)c3cccnc32)C1` [Compound 230, 3-(1-(2 fluoroacryloyl)azetidin-3 yl)-1-(4-(trifluoromethyl)phenyl)-1,3-dihydro-2H-imidazo[4,5-b]pyridin-2-one], for which the EC50 with TEAD-YAP/TAZ interaction worked out at 6.4 nM.

As to `C=CC(=O)N1CC(n2c(=N)n(-c3ccc(C(F)(F)F)cc3)c3ccccc32)C1` [Compound 231, 1-(3-(2-imino-3-(4-(trifluoromethyl)phenyl)-2,3-dihydro-1H-benzo[d]imidazol-1 yl)azetidin-1 yl)prop-2-en-1-one], in the data set on TEAD-YAP/TAZ interaction, the EC50 was found to be 360 nM.

Take `C=CC(=O)N1CC(n2c(=O)n(-c3ccc(C(F)(F)F)cc3)c3ccccc32)C1` [Compound 236, 1-(1-acryloylazetidin-3-yl)-3-(4-(trifluoromethyl)phenyl)-1,3-dihydro-2H-benzo[d]imidazol-2-one]: in the data set with TEAD-YAP/TAZ interaction, the EC50 was 3 nM.

Turning to `C=C(F)C(=O)N1CC(n2c(=O)n(-c3ccc(C(F)(F)F)cc3)c3ncccc32)C1` [Compound 239, 1-(1-(2-fluoroacryloyl)azetidin-3-yl)-3-(4-(trifluoromethyl)phenyl)-1,3-dihydro-2H-imidazo[4,5-b]pyridin-2-one], the EC50 in the data set on TEAD-YAP/TAZ interaction was 15 nM.

In data set [1], `C=C(F)C(=O)N1CC(n2c(=O)n(-c3ccc(C(F)(F)F)nc3)c3nccnc32)C1` [Compound 241, 1-(1-(2-fluoroacryloyl)azetidin-3-yl)-3-(6-(trifluoromethyl)pyridin-3-yl)-1,3-dihydro-2H-imidazo[4,5-b]pyrazin-2-one] returned a Cmax of 2530 ng/mL and an AUC of 8260 ng·h/mL.

Regarding `C=C(F)C(=O)N1CC(n2c(=O)n(-c3ccc(C(F)(F)F)cc3)c3cc(C)cnc32)C1` [Compound 244, 3-(1-(2-fluoroacryloyl)azetidin-3-yl)-6-methyl-1-(4-(trifluoromethyl)phenyl)-1,3-dihydro-2H-imidazo[4,5-b]pyridin-2-one], the EC50 in the data set with TEAD-YAP/TAZ interaction worked out at 11 nM.

Take `C=C(F)C(=O)N1CC(n2c(=O)n(-c3ccc(C(F)(F)F)cc3)c3cc(C(F)(F)F)cnc32)C1` [Compound 245, 3-(1-(2-fluoroacryloyl)azetidin-3-yl)-6-(trifluoromethyl)-1-(4-(trifluoromethyl)phenyl)-1,3-dihydro-2H-imidazo[4,5-b]pyridin-2-one]: in the data set on TEAD-YAP/TAZ interaction, the EC50 worked out at 32 nM.

As for `C=C(F)C(=O)N1CC(n2c(=O)n(-c3ccc(C(F)(F)F)cc3)c3ccc(Cl)nc32)C1` [Compound 252, 5-chloro-3-(1-(2-fluoroacryloyl)azetidin-3-yl)-1-(4-(trifluoromethyl)phenyl)-1,3-dihydro-2H-imidazo[4,5-b]pyridin-2-one], in the data set on TEAD-YAP/TAZ interaction, the EC50 is 9.8 nM.

`C=C(F)C(=O)N1CC(Nc2nc(-c3ccc(C(F)(F)F)cc3)nc3ccccc23)C1` [Compound 255, 2 fluoro-1-(3-((2-(4-(trifluoromethyl)phenyl)quinazolin-4 yl)amino)azetidin-1 yl)prop-2-en-1-one]: in the data set with TEAD-YAP/TAZ interaction, the EC50 was 44 nM.

For `C=C(F)C(=O)N1CC(c2nc(-c3ccc(C(F)(F)F)cc3)nc3ccccc23)C1` [Compound 256, 2 fluoro-1-(3-(2-(4-(trifluoromethyl)phenyl)quinazolin-4 yl)azetidin-1 yl)prop-2-en-1-one], the EC50 in the data set with TEAD-YAP/TAZ interaction was 0.7 nM.

With `C=CC(=O)NC1CN(c2nc(-c3ccc(C(F)(F)F)cc3)nc3ccccc23)C1` [compound 268, N-(1-(2-(4-(trifluoromethyl)phenyl)quinazolin-4-yl)azetidin-3-yl)acrylamide], in data set [1], the concentration peaked (Cmax) at 1690 ng/mL and the AUC stood at 6100 ng·h/mL.

With `C=C(F)C(=O)NC1CN(c2nc(-c3ccc(C(F)(F)F)cc3)nc3ccccc23)C1` [compound 269, 2-fluoro-N-(1-(2-(4-(trifluoromethyl)phenyl)quinazolin-4-yl)azetidin-3-yl)acrylamide], in data set [1], the peak level (Cmax) was 1250 ng/mL and the area under the curve (AUC) was found to be 4370 ng·h/mL.

As for `C=CC(=O)NC1CN(c2nc(-c3ccc(C(F)(F)F)cc3)nc3cccnc23)C1` [compound 281, N-(1-(2-(4-(trifluoromethyl)phenyl)pyrido[3,2-d]pyrimidin-4-yl)azetidin-3-yl)acrylamide], in data set [1], the highest level (Cmax) was 1190 ng/mL and the AUC was found to be 4200 ng·h/mL.

In data set [1], `C=C(F)C(=O)N1CC(n2nc(C#Cc3ccccc3)c3cccnc32)C1` [compound 307] returned a Cmax of 2710 ng/mL and an AUC of 8480 ng·h/mL.

In data set [1], `C=C(F)C(=O)N1CC(n2nc(/C=C/c3ccccc3)c3cccnc32)C1` [compound 308] came in with a Cmax of 2610 ng/mL and an AUC of 9110 ng·h/mL.

In data set [1], `C=C(F)C(=O)N1CC(n2nc(C#CC3CCCC3)c3cccnc32)C1` [compound 312, 1-(3-(3-(cyclopentylethynyl)-1H-pyrazolo[3,4-b]pyridin-1-yl)azetidin-1-yl)-2-fluoroprop-2-en-1-one] had a Cmax of 2080 ng/mL and an AUC of 5790 ng·h/mL.

Turning to `C=C(F)C(=O)N1CC(n2nc(/C=C/C3CCCCC3)c3cccnc32)C1` [compound 331, (E)-1-(3-(3-(2-cyclohexylvinyl)-1H-pyrazolo[3,4-b]pyridin-1-yl)azetidin-1-yl)-2-fluoroprop-2-en-1-one], in data set [1], the highest level (Cmax) was 1760 ng/mL and the AUC worked out at 5730 ng·h/mL.
